Patent publication US11046716B2, “Beta-lactamase inhibitors” (priority 2015, dated 2021)

Assays:
OXA-48 = OXA-48 (UniProt Q6XEC0); test: β-lactamase enzyme inhibition assay, Class D oxacillinase; format: biochemical; conditions: read-out: OXA-48
[1] = system: K. pneumoniae expressing the Class A carbapenemase KPC-2; test: Broth microdilution MIC assay with meropenem, K. pneumoniae KPC-2; format: cell-based; conditions: Fixed Mero (meropenem) 4 μg/mL; K. p. 156319 KPC-3
Summary of the method: (§1)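 Test compound was titrated 2-fold from 16 to 0.125 μg/mL in cation-adjusted Mueller Hinton broth against a fixed 4 μg/ml β-lactam overlay. Plates were inoculated per CLSI broth microdilution, incubated 16-20 hours at 37° C, and the MIC of the test compound was read visually.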

AmpC = biological target: T1, AmpC (Enterobacter cloacae, UniProt P05364); test: β-lactamase enzyme inhibition assay, p99 AmpC (nitrocefin substrate); format: biochemical
T1 construct: made in house; host or cells: E. coli BL21(DE3)
Summary of the method: (§2)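 Native untagged enzymes expressed in E. coli BL21(DE3), purified by cation exchange and gel filtration. Inhibitor preincubated with enzyme 15 min at 37 °C; hydrolysis followed by absorbance. IC50 as concentration halving initial hydrolysis rate versus inhibitor-free wells.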

[2] = system: E. coli expressing the Class A Extended Spectrum Beta-Lactamase (ESBL) CTX-M-15; test: Broth microdilution MIC assay with ceftazidime, E. coli CTX-M-15; format: cell-based; conditions: Fixed CAZ (ceftazidime) 4 μg/mL; E. coli ESBL4 CTX-M-15
Summary of the method: as §1

[3] = system: E. cloacae expressing the Class C P99; test: Broth microdilution MIC assay with ceftazidime, E. cloacae P99; format: cell-based; conditions: Fixed CAZ (ceftazidime) 4 μg/mL; E. cl. 144200 p99 AmpC
Summary of the method: as §1

[4] = system: P. aeruginosa expressing the Class B carbapenemase VIM-2; test: Broth microdilution MIC assay with meropenem, P. aeruginosa VIM-2; format: cell-based; conditions: Fixed Mero (meropenem) 4 μg/mL; P. aerug. 2775 VIM-2
Summary of the method: as §1

[5] = system: K. pneumoniae expressing the class A carbapenemase KPC-2 and the class B carbapenemase VIM-4; test: Broth microdilution MIC assay with meropenem, K. pneumoniae KPC-2 and VIM-4; format: cell-based; conditions: Fixed Mero (meropenem) 4 μg/mL; K. p. A-1797 KPC-2 VIM-4
Summary of the method: as §1

KPC-2 = biological target: T2, KPC-2 (Klebsiella pneumoniae, UniProt Q9F663); test: β-lactamase enzyme inhibition assay, KPC-2 (imipenem substrate); format: biochemical; conditions: Class A; imipenem substrate, 300 nm; read-out: KPC-2
T2 construct: made in house; host or cells: E. coli BL21(DE3)
Summary of the method: as §2, with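 “absorbance: imipenem at 300 nm for KPC-2, cefotaxime at 260 nm for SHV-5.” for “absorbance.”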

SHV-5 = biological target: T3, SHV-5 (Klebsiella pneumoniae, UniProt P0A3M1); test: β-lactamase enzyme inhibition assay, SHV-5 (cefotaxime substrate); format: biochemical
T3 construct: made in house; host or cells: E. coli BL21(DE3)
Summary of the method: as §2, with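 “absorbance: imipenem at 300 nm for KPC-2, cefotaxime at 260 nm for SHV-5.” for “absorbance.”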

VIM-2 = biological target: T4, VIM-2 (Escherichia coli, UniProt Q5U7L7); test: β-lactamase enzyme inhibition assay, VIM-2 (nitrocefin substrate); format: biochemical; conditions: Class B; nitrocefin substrate, 486 nm; read-out: VIM-2
T4 construct: made in house; host or cells: E. coli BL21(DE3)
Summary of the method: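 Purified VIM-2 (Q sepharose anion exchange, Hepes pH 7.5, >90% pure) was preincubated with inhibitor at 37 °C for 15 min, then nitrocefin added at 100 μM final. Absorbance at 486 nm was followed for 10 min; IC50 was taken from maximum hydrolysis rates relative to inhibitor-free controls.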

[6] = system: K. pneumoniae producing the Class D carbapenemase OXA-48; test: Broth microdilution MIC assay with meropenem, K. pneumoniae OXA-48; format: cell-based; conditions: Fixed Mero (meropenem) 4 μg/mL; K. p. 11978 OXA-48
Summary of the method: as §1

T3 sequence (P0A3M1 22-286): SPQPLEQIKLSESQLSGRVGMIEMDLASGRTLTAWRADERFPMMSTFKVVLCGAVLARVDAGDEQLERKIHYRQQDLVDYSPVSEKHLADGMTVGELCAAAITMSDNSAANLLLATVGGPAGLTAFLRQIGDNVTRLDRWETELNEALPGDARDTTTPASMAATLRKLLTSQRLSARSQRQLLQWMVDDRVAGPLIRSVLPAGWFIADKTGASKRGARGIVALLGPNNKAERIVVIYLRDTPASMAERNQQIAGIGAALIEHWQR
T2 sequence (Q9F663 25-293, looked up): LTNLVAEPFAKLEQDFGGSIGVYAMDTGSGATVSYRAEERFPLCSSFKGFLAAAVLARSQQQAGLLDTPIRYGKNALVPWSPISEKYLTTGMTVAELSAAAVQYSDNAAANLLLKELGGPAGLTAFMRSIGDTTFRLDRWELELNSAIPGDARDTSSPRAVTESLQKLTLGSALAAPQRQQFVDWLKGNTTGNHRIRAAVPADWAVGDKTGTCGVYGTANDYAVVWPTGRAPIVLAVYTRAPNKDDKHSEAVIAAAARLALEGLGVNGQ
T1 sequence (P05364 21-381): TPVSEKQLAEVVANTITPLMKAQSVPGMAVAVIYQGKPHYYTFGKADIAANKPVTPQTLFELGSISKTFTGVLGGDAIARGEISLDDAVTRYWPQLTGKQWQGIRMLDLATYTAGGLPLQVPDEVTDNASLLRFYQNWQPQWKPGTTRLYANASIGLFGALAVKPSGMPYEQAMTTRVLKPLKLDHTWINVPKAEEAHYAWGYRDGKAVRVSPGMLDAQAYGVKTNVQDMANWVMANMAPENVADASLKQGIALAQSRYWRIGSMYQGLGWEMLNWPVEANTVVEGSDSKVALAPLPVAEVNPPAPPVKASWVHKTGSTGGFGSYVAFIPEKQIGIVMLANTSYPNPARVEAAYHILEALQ

SMILES	IC50 (OXA-48)	MIC (μg/mL) of Exemplary Compounds in presence of fixed β-lactams: K. p. 156319 KPC-3 [1]	IC50 (AmpC)	MIC (μg/mL) of Exemplary Compounds in presence of fixed β-lactams: E. coli ESBL4 CTX-M-15 [2]	MIC (μg/mL) of Exemplary Compounds in presence of fixed β-lactams: E. cl. 144200 p99 AmpC [3]	MIC (μg/mL) of Exemplary Compounds in presence of fixed β-lactams: P. aerug. 2775 VIM-2 [4]	MIC (μg/mL) of Exemplary Compounds in presence of fixed β-lactams: K. p. A-1797 KPC-2 VIM-4 [5]	IC50 (KPC-2)	IC50 (SHV-5)	IC50 (VIM-2)	MIC (μg/mL) of Exemplary Compounds in presence of fixed β-lactams: K. p. 11978 OXA-48 [6]
N=C(N)NCCn1nnc(CC(=O)N[C@H]2Cc3cccc(C(=O)O)c3OB2O)n1 [Example 48, (R)-3-(2-(2-(2-guanidinoethyl)-2H-tetrazol-5-yl)acetamido)-2-hydroxy-3,4-dihydro-2H-benzo[e][1,2]oxaborinine-8-carboxylic acid]	1000 to 10000 nM	B (B represents an MIC between 1 and 16 μg/mL inclusive)	< 100 nM	C (C represents an MIC of <1 μg/mL)	C (C represents an MIC of <1 μg/mL)	C (C represents an MIC of <1 μg/mL)	B (B represents an MIC between 1 and 16 μg/mL inclusive)	< 100 nM	< 100 nM	< 100 nM	B (B represents an MIC between 1 and 16 μg/mL inclusive)
CN(C)CCn1nnnc1CC(=O)N[C@H]1Cc2cccc(C(=O)O)c2OB1O [Example 49, (R)-3-(2-(1-(2-(dimethylamino)ethyl)-1H-tetrazol-5-yl)acetamido)-2-hydroxy-3,4-dihydro-2H-benzo[e][1,2]oxaborinine-8-carboxylic acid]	100 to 1000 nM	C (C represents an MIC of <1 μg/mL)	< 100 nM	C (C represents an MIC of <1 μg/mL)	C (C represents an MIC of <1 μg/mL)	B (B represents an MIC between 1 and 16 μg/mL inclusive)	B (B represents an MIC between 1 and 16 μg/mL inclusive)	< 100 nM	< 100 nM	100 to 1000 nM	B (B represents an MIC between 1 and 16 μg/mL inclusive)
NCCCn1nnnc1CC(=O)N[C@H]1Cc2cccc(C(=O)O)c2OB1O [Example 50, (R)-3-(2-(1-(3-aminopropyl)-1H-tetrazol-5-yl)acetamido)-2-hydroxy-3,4-dihydro-2H-benzo[e][1,2]oxaborinine-8-carboxylic acid]	1000 to 10000 nM	C (C represents an MIC of <1 μg/mL)	< 100 nM	C (C represents an MIC of <1 μg/mL)	C (C represents an MIC of <1 μg/mL)	C (C represents an MIC of <1 μg/mL)	C (C represents an MIC of <1 μg/mL)	< 100 nM	< 100 nM	< 100 nM	B (B represents an MIC between 1 and 16 μg/mL inclusive)
NCCCn1nnc(CC(=O)N[C@H]2Cc3cccc(C(=O)O)c3OB2O)n1 [Example 51]	1000 to 10000 nM	C (C represents an MIC of <1 μg/mL)	< 100 nM	C (C represents an MIC of <1 μg/mL)	C (C represents an MIC of <1 μg/mL)	C (C represents an MIC of <1 μg/mL)	B (B represents an MIC between 1 and 16 μg/mL inclusive)	< 100 nM	< 100 nM	< 100 nM	B (B represents an MIC between 1 and 16 μg/mL inclusive)
CC(C)NCCn1nnnc1CC(=O)N[C@H]1Cc2cccc(C(=O)O)c2OB1O [Example 52, (R)-2-hydroxy-3-(2-(1-(2-(isopropylamino)ethyl)-1H-tetrazol-5-yl)acetamido)-3,4-dihydro-2H-benzo[e][1,2]oxaborinine-8-carboxylic acid]	1000 to 10000 nM	C (C represents an MIC of <1 μg/mL)	< 100 nM	C (C represents an MIC of <1 μg/mL)	C (C represents an MIC of <1 μg/mL)	C (C represents an MIC of <1 μg/mL)	B (B represents an MIC between 1 and 16 μg/mL inclusive)	< 100 nM	< 100 nM	< 100 nM	B (B represents an MIC between 1 and 16 μg/mL inclusive)
N=C(N)NCCCn1nnnc1CC(=O)N[C@H]1Cc2cccc(C(=O)O)c2OB1O [Example 53, (R)-3-(2-(1-(3-guanidinopropyl)-1H-tetrazol-5-yl)acetamido)-2-hydroxy-3,4-dihydro-2H-benzo[e][1,2]oxaborinine-8-carboxylic acid]	1000 to 10000 nM	C (C represents an MIC of <1 μg/mL)	< 100 nM	C (C represents an MIC of <1 μg/mL)	C (C represents an MIC of <1 μg/mL)	C (C represents an MIC of <1 μg/mL)	C (C represents an MIC of <1 μg/mL)	< 100 nM	< 100 nM	< 100 nM	B (B represents an MIC between 1 and 16 μg/mL inclusive)
CCn1nnnc1CC(=O)N[C@H]1Cc2cccc(C(=O)O)c2OB1O [Example 54, (R)-3-(2-(1-ethyl-1H-tetrazol-5-yl)acetamido)-2-hydroxy-3,4-dihydro-2H-benzo[e][1,2]oxaborinine-8-carboxylic acid]	1000 to 10000 nM	B (B represents an MIC between 1 and 16 μg/mL inclusive)	< 100 nM	C (C represents an MIC of <1 μg/mL)	C (C represents an MIC of <1 μg/mL)	B (B represents an MIC between 1 and 16 μg/mL inclusive)	B (B represents an MIC between 1 and 16 μg/mL inclusive)	< 100 nM	< 100 nM	100 to 1000 nM	B (B represents an MIC between 1 and 16 μg/mL inclusive)
